Source: ChEMBL document CHEMBL3407366, “Original 2-(3-alkoxy-1H-pyrazol-1-yl)pyrimidine derivatives as inhibitors of human dihydroorotate dehydrogenase (DHODH)” (J Med Chem, 2015)
Values after ≈ are worked out from the molar mass of the structure shown. Active and inactive are the calls of the source. No cut-off for these calls is given here.

These compounds were tested on Measles morbillivirus (assay: Antiviral activity against Measles virus expressing firefly luciferase rMV2/Luc infected in human HEK293 cells assessed as bioluminescence level after 6 mins by luminometry). Conditions: not given.
Type: functional

Structure (SMILES)	pMIC50
CCc1cnc(-n2nc(OC(C)C)c(Oc3c(F)cccc3F)c2C)nc1	9.1
COc1cnc(-n2nc(OC(C)C)c(Oc3c(F)cccc3F)c2C)nc1	7.3
CCc1ccc(-n2nc(OC(C)C)c(Cc3ccccc3)c2C)cc1	6.2
Cc1c(Cc2ccccc2F)c(OC(C)C)nn1-c1ncc(C2CC2)cn1	8.9
CCOc1nn(-c2ncc(CC)cn2)c(C)c1Oc1ccc(C(F)(F)F)cc1	5.2
CCc1cnc(-n2nc(CC(C)C)c(Cc3ccccc3)c2C)nc1	7.5
Cc1c(Oc2c(F)cccc2F)c(OC(C)C)nn1-c1ncccn1	5.6
CCOc1nn(-c2ncc(CC)cn2)c(C)c1Oc1ccccc1Br	6.9
Cc1c(C(O)c2ccccc2)c(OC(C)C)nn1-c1ncc(C2CC2)cn1 (centres undefined)	8.8
CCCc1cnc(-n2nc(OC(C)C)c(Oc3c(F)cccc3F)c2C)nc1O	7.2
CCOc1nn(-c2ncc(CC)cn2)c(C)c1-c1ccccc1	5.4
CCOc1nn(-c2ncc(CC)cn2)c(C)c1Sc1ccccc1	6.9
CCC(C)Oc1nn(-c2ncc(C3CC3)cn2)c(C)c1Cc1ccccc1 (centres undefined)	8.7
CCOc1nn(-c2ncc(CC)cn2)c(C)c1Oc1cc(Cl)ccc1Cl	7.6
CCOc1nn(-c2ncc(CC)cn2)c(C)c1Oc1cccc(C(F)(F)F)c1	7.3
Cc1c(Cc2ccccc2)c(O)nn1-c1ncc(C2CC2)cn1	5.6
CCCc1cnc(-n2nc(OC(C)C)c(Oc3c(F)cccc3F)c2C)nc1	8.5
CCc1cnc(-n2nc(OC(C)C)c(Oc3cc(F)ccc3F)c2C)nc1	7.3
Cc1cnc(-n2nc(OC(C)C)c(Oc3c(F)cccc3F)c2C)nc1O	6.8
CCc1cnc(-n2nc(OC(C)C)c(Cc3ccccc3)c2C)nc1	8.4
CCc1cnc(-n2nc(OC(C)C)c(Cc3ccccc3F)c2C)nc1	8.8
Cc1c(Cc2ccccc2)c(OC(C)C)nn1-c1ncc(C2CC2)cn1	8.2

Structure (SMILES)	pMIC50
CCc1cnc(-n2nc(OCCCN(C)C)c(Cc3ccccc3)c2C)nc1	6.1
CCN(CC)Cc1c(Cc2ccccc2)c(OC(C)C)nn1-c1ncc(C2CC2)cn1	5.1
CCc1cnc(-n2nc(OC(C)C)c(Oc3c(F)cccc3F)c2C)nc1O	7.8
CCOc1nn(-c2ncc(OC)cn2)c(C)c1Cc1ccccc1	6.2
CCc1cnc(-n2nc(OC(C)C)c(Cc3cccc(F)c3)c2C)nc1	8.2
Cc1c(Oc2c(F)cccc2F)c(OC(C)C)nn1-c1ncc(F)cn1	6.6
CCc1cnc(-n2nc(OC(C)C)c(Oc3cccc(F)c3)c2C)nc1	6.6
CCc1cnc(-n2nc(OC(C)C)c(Oc3ccc(F)cc3F)c2C)nc1	7.9
Cc1c(Oc2c(F)cccc2F)c(OC(C)C)nn1-c1ncc(C2CC2)cn1	8.9
CCOc1nn(-c2ncccn2)c(C)c1Cc1ccccc1	5.5
CCOc1nn(-c2ncc(CC)cn2)c(C)c1Oc1ccccc1F	7.2
CCc1cnc(-n2nc(OCCO)c(Cc3ccccc3)c2C)nc1	6.6
CCc1cnc(-n2nc(OC(C)C)c(Oc3cccc(F)c3F)c2C)nc1	7.2
CCCCCc1cnc(-n2nc(OCC)c(Cc3ccccc3)c2C)nc1	<5
CCOc1nn(-c2ncc(C3CC3)cn2)c(C)c1Cc1ccccc1	7.6
CCc1cnc(-n2nc(OCCOCc3ccccc3)c(Cc3ccccc3)c2C)nc1	7.3
CCc1cnc(-n2nc(O)c(Cc3ccccc3)c2C)nc1	6.3
CCOc1nn(-c2ncc(CC)cn2)c(C)c1Oc1ccccc1Cl	6.9
CCc1cnc(-n2nc(OC(C)C)c(Cc3ccc(F)cc3)c2C)nc1	7.4
CC(C)Oc1nn(-c2ncc(C3CC3)cn2)c(CN(C)C)c1Cc1ccccc1	<5
CCc1cnc(-n2nc(OC(C)C)c(Oc3ccc(F)cc3)c2C)nc1	6.5
CCOc1nn(-c2ncc(CC)cn2)c(C)c1Oc1ccccc1	6.2

Structure (SMILES)	pMIC50
Cc1c(Oc2c(F)cccc2F)c(OC(C)C)nn1-c1nccc(O)n1	<5
CCOc1nn(-c2nccc(C)n2)c(C)c1Cc1ccccc1	6.1
CCOc1nn(-c2ncc(CC)c(C)n2)c(C)c1Cc1ccccc1	7.4
CCOc1nn(-c2ncc(C)cn2)c(C)c1Cc1ccccc1	7.5
CCOc1nn(-c2ccc(C)cn2)c(C)c1Cc1ccccc1	6.2
Cc1c(Oc2c(F)cccc2F)c(OC(C)C)nn1-c1ncc(Br)cn1	7.9
COCc1c(Cc2ccccc2)c(OC(C)C)nn1-c1ncc(C2CC2)cn1	7.2
CCOc1nn(-c2ncc(CC)cn2)c(C)c1C(=O)c1ccccc1	6.2
COc1nn(-c2ncc(C3CC3)cn2)c(C)c1Cc1ccccc1	7.3
C/C(O)=C(\C#N)C(=O)Nc1ccc(C(F)(F)F)cc1 [TERIFLUNOMIDE]	5.3
CCOc1nn(-c2ncc(CC)cn2)c(C)c1Cc1ccccc1	7.7
CCOc1nn(-c2ncc(CC)cn2)c(C)c1Oc1cc(Cl)cc(Cl)c1	5.9
CCOc1nn(-c2ncc(CC)cn2)c(C)c1Oc1ccccc1C(F)(F)F	6.2
CCCc1cnc(-n2nc(OCC)c(Cc3ccccc3)c2C)nc1	7.5
Cc1nn(-c2ncc(C3CC3)cn2)c(OC(C)C)c1Cc1ccccc1	6.8
Cc1cnc(-n2nc(OC(C)C)c(Oc3c(F)cccc3F)c2C)nc1	7.9
CCOc1nn(-c2ncc(CC)cn2)c(C)c1I	4.9
CCOc1nn(-c2ncc(Br)cn2)c(C)c1Cc1ccccc1	7
CCC(CC)Oc1nn(-c2ncc(C3CC3)cn2)c(C)c1Cc1ccccc1	8.8
CCOc1nn(-c2ncc(CC)cn2)c(C)c1Oc1cccc(Cl)c1Cl	6.8
CCc1cnc(-n2nc(OC(C)C)c(Oc3ccccc3F)c2C)nc1	8.1

Same assay, conditions: Measles morbillivirus, 0.1 h

Structure (SMILES)	MIC50
CCOc1nn(-c2ncccn2)c(C)c1Cc1ccccc1	2.72 µM (≈ 0.801 µg/mL)
CCOc1nn(-c2ccc(C)cn2)c(C)c1Cc1ccccc1	0.65 µM (≈ 0.2 µg/mL)

These compounds were tested on HEK293 (assay: Cytotoxicity against human HEK293 cells assessed as cell viability after 24 hrs by CellTiter-Glo assay). Conditions: hek293, 24 h.
Type: cell-based

Structure (SMILES)	Activity
CCOc1nn(-c2ncccn2)c(C)c1Cc1ccccc1	Non-toxic
CCOc1nn(-c2ccc(C)cn2)c(C)c1Cc1ccccc1	Non-toxic

Each compound was assayed on Measles morbillivirus (assay: Antiviral activity against measles virus expressing firefly luciferase rMV2/Luc infected in human HEK293 cells assessed as bioluminescence level at 16 to 195 nM after 6 mins by luminometry in presence of uridine). Conditions: not given.
Type: functional, organism-based

Structure (SMILES)	Activity
CCOc1nn(-c2ncc(CC)cn2)c(C)c1Cc1ccccc1	inactive

Each compound was assayed on Measles morbillivirus (assay: Antiviral activity against measles virus expressing firefly luciferase rMV2/Luc infected in human HEK293 cells assessed as bioluminescence level at 16 to 195 nM after 6 mins by luminometry in presence of orotic acid). Conditions: not given.
Type: functional, organism-based

Structure (SMILES)	Activity
CCOc1nn(-c2ncc(CC)cn2)c(C)c1Cc1ccccc1	inactive

These compounds were tested on Measles morbillivirus (assay: Antiviral activity against measles virus expressing firefly luciferase rMV2/Luc infected in human HEK293 cells assessed as bioluminescence level at 16 to 195 nM after 6 mins by luminometry in presence of dihydroorotic acid). Conditions: not given.
Type: functional, organism-based

Structure (SMILES)	Activity
CCOc1nn(-c2ncc(CC)cn2)c(C)c1Cc1ccccc1	Active

Each compound was assayed against Dihydroorotate dehydrogenase (quinone), mitochondrial (Homo sapiens, UniProt Q02127) (assay: Inhibition of His-tagged human DHODH assessed as reduction of DCIP by spectrophotometry). Conditions: not given.
Sequence of Dihydroorotate dehydrogenase (quinone), mitochondrial (Q02127 whole entry): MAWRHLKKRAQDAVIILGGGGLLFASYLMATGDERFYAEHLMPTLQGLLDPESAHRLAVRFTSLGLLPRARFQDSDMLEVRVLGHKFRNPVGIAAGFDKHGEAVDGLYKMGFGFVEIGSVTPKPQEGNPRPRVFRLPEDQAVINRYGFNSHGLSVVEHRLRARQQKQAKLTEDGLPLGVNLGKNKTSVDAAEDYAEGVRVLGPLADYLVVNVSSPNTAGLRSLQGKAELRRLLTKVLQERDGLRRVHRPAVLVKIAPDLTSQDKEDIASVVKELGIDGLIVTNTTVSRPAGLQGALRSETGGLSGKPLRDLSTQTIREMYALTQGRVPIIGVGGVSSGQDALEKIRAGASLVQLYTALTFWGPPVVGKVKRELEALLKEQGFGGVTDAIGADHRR

Structure (SMILES)	IC50
Cc1c(Cc2ccccc2F)c(OC(C)C)nn1-c1ncc(C2CC2)cn1	12.6 nM
CCOc1nn(-c2ncc(CC)cn2)c(C)c1Oc1ccccc1Br	126 nM
